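Growth conditions: 96-well plates. Treatment: test compound, 48 hours, 5 concentrations. Analysis: linear interpolation between bracketing concentrations; unreached endpoints set to highest concentration. Abbreviation: GI50, concentration required for 50% inhibition of growth. Definition used: TGI = concentration required for complete inhibition of growth.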
Assays:
Experiment in all cases: growth of human tumour cells (NCI), 48 h
786-0 renal = tested on: 786-0 renal
A498 renal = tested on: A498 renal
A549 NSCLC = tested on: A549 NSCLC
ACHN renal = tested on: ACHN renal
BT-549 breast = tested on: BT-549 breast
CCRF-CEM leukemia = tested on: CCRF-CEM leukemia
COLO 205 colon = tested on: COLO 205 colon
DU-145 prostate = tested on: DU-145 prostate
EKVX NSCLC = tested on: EKVX NSCLC
HCC-2998 colon = tested on: HCC-2998 colon
HCT-116 colon = tested on: HCT-116 colon
HCT-15 colon = tested on: HCT-15 colon
HL-60(TB) leukemia = tested on: HL-60(TB) leukemia
HOP-62 NSCLC = tested on: HOP-62 NSCLC
HOP-92 NSCLC = tested on: HOP-92 NSCLC
HS 578T breast = tested on: HS 578T breast
HT29 colon = tested on: HT29 colon
IGROV1 ovarian = tested on: IGROV1 ovarian
K-562 leukemia = tested on: K-562 leukemia
KM12 colon = tested on: KM12 colon
LOX IMVI melanoma = tested on: LOX IMVI melanoma
M14 melanoma = tested on: M14 melanoma
MALME-3M melanoma = tested on: MALME-3M melanoma
MCF7 breast = tested on: MCF7 breast
MDA-MB-231 breast = tested on: MDA-MB-231 breast
MDA-MB-435 = tested on: MDA-MB-435
MOLT-4 leukemia = tested on: MOLT-4 leukemia
NCI-H226 lung = tested on: NCI-H226 lung
NCI-H23 lung = tested on: NCI-H23 lung
NCI-H460 lung = tested on: NCI-H460 lung
NCI-H522 lung = tested on: NCI-H522 lung
NCI/ADR-RES ovarian = tested on: NCI/ADR-RES ovarian
OVCAR-3 ovarian = tested on: OVCAR-3 ovarian
OVCAR-4 ovarian = tested on: OVCAR-4 ovarian
OVCAR-5 ovarian = tested on: OVCAR-5 ovarian
OVCAR-8 ovarian = tested on: OVCAR-8 ovarian
PC-3 prostate = tested on: PC-3 prostate
RPMI-8226 leukemia = tested on: RPMI-8226 leukemia
RXF 393 renal = tested on: RXF 393 renal
SF-268 CNS = tested on: SF-268 CNS
SF-295 CNS = tested on: SF-295 CNS
SF-539 CNS = tested on: SF-539 CNS
SK-MEL-2 melanoma = tested on: SK-MEL-2 melanoma
SK-MEL-28 melanoma = tested on: SK-MEL-28 melanoma
SK-MEL-5 melanoma = tested on: SK-MEL-5 melanoma
SK-OV-3 ovarian = tested on: SK-OV-3 ovarian
SN12C renal = tested on: SN12C renal
SNB-19 CNS = tested on: SNB-19 CNS
SNB-75 CNS = tested on: SNB-75 CNS
SR leukemia = tested on: SR leukemia
SW-620 colon = tested on: SW-620 colon
T-47D breast = tested on: T-47D breast
TK-10 renal = tested on: TK-10 renal
U251 CNS = tested on: U251 CNS
UACC-257 melanoma = tested on: UACC-257 melanoma
UACC-62 melanoma = tested on: UACC-62 melanoma
UO-31 renal = tested on: UO-31 renal
CAKI-1 renal = tested on: CAKI-1 renal

CCCCCC(=O)Oc1ccc(/C(=C(\C)c2ccc(OC)cc2)c2ccc(OCCN3CCCCC3)cc2)cc1
GI50 (786-0 renal): 1.98 µM | TGI (786-0 renal): 5.61 µM | GI50 (A498 renal): 13.5 µM | TGI (A498 renal): 26.5 µM | GI50 (A549 NSCLC): 10.1 µM | TGI (A549 NSCLC): 22.4 µM | GI50 (ACHN renal): 10.7 µM | TGI (ACHN renal): 22.6 µM | GI50 (BT-549 breast): 10.7 µM | TGI (BT-549 breast): 23.2 µM | GI50 (CCRF-CEM leukemia): 4.2 µM | TGI (CCRF-CEM leukemia): 31.8 µM | GI50 (COLO 205 colon): 2.02 µM | TGI (COLO 205 colon): 4.55 µM | GI50 (DU-145 prostate): 13.5 µM | TGI (DU-145 prostate): 26.6 µM | GI50 (EKVX NSCLC): 9.92 µM | TGI (EKVX NSCLC): 22.7 µM | GI50 (HCC-2998 colon): 12.5 µM | TGI (HCC-2998 colon): 25.5 µM | GI50 (HCT-116 colon): 7.36 µM | TGI (HCT-116 colon): 20.5 µM | GI50 (HCT-15 colon): 2.92 µM | TGI (HCT-15 colon): 10.2 µM | GI50 (HL-60(TB) leukemia): 3.98 µM | TGI (HL-60(TB) leukemia): 17.8 µM | GI50 (HOP-62 NSCLC): 5.73 µM | TGI (HOP-62 NSCLC): 19.8 µM | GI50 (HOP-92 NSCLC): 3.83 µM | TGI (HOP-92 NSCLC): 17 µM | GI50 (HS 578T breast): 4.76 µM | TGI (HS 578T breast): 25.1 µM | GI50 (HT29 colon): 3.36 µM | TGI (HT29 colon): 13.4 µM | GI50 (IGROV1 ovarian): 10.4 µM | TGI (IGROV1 ovarian): 25.9 µM | GI50 (K-562 leukemia): 3.16 µM | TGI (K-562 leukemia): 16.2 µM | GI50 (KM12 colon): 8.83 µM | TGI (KM12 colon): 27 µM | GI50 (LOX IMVI melanoma): 2.19 µM | TGI (LOX IMVI melanoma): 5.22 µM | GI50 (M14 melanoma): 2.02 µM | TGI (M14 melanoma): 4.37 µM | GI50 (MALME-3M melanoma): 2.84 µM | TGI (MALME-3M melanoma): 10.4 µM | GI50 (MCF7 breast): 0.726 µM | TGI (MCF7 breast): 14.4 µM | GI50 (MDA-MB-231 breast): 9.32 µM | TGI (MDA-MB-231 breast): 21.9 µM | GI50 (MDA-MB-435): 7.93 µM | TGI (MDA-MB-435): 20.7 µM | GI50 (MOLT-4 leukemia): 3.54 µM | TGI (MOLT-4 leukemia): 18.8 µM | GI50 (NCI-H226 lung): 17.3 µM | TGI (NCI-H226 lung): 38.4 µM | GI50 (NCI-H23 lung): 10.1 µM | TGI (NCI-H23 lung): 23.8 µM | GI50 (NCI-H460 lung): 4.42 µM | TGI (NCI-H460 lung): 15.8 µM | GI50 (NCI-H522 lung): 14.4 µM | TGI (NCI-H522 lung): 30.5 µM | GI50 (NCI/ADR-RES ovarian): 11 µM | TGI (NCI/ADR-RES ovarian): 26.1 µM | GI50 (OVCAR-3 ovarian): 11.6 µM | TGI (OVCAR-3 ovarian): 25.2 µM | GI50 (OVCAR-4 ovarian): 4.95 µM | TGI (OVCAR-4 ovarian): 18.5 µM | GI50 (OVCAR-5 ovarian): 12.7 µM | TGI (OVCAR-5 ovarian): 27 µM | GI50 (OVCAR-8 ovarian): 12.8 µM | TGI (OVCAR-8 ovarian): 29.6 µM | GI50 (PC-3 prostate): 5.65 µM | TGI (PC-3 prostate): 18.7 µM | GI50 (RPMI-8226 leukemia): 3.24 µM | GI50 (RXF 393 renal): 1.8 µM | TGI (RXF 393 renal): 9.52 µM | GI50 (SF-268 CNS): 11.6 µM | TGI (SF-268 CNS): 26.9 µM | GI50 (SF-295 CNS): 2.28 µM | TGI (SF-295 CNS): 6.32 µM | GI50 (SF-539 CNS): 3.56 µM | TGI (SF-539 CNS): 14 µM | GI50 (SK-MEL-2 melanoma): 10.5 µM | TGI (SK-MEL-2 melanoma): 23.8 µM | GI50 (SK-MEL-28 melanoma): 3.6 µM | TGI (SK-MEL-28 melanoma): 12.8 µM | GI50 (SK-MEL-5 melanoma): 1.8 µM | TGI (SK-MEL-5 melanoma): 3.57 µM | GI50 (SK-OV-3 ovarian): 10.6 µM | TGI (SK-OV-3 ovarian): 22.7 µM | GI50 (SN12C renal): 10.8 µM | TGI (SN12C renal): 23.5 µM | GI50 (SNB-19 CNS): 11.4 µM | TGI (SNB-19 CNS): 24.8 µM | GI50 (SNB-75 CNS): 10.2 µM | TGI (SNB-75 CNS): 26.3 µM | GI50 (SR leukemia): 2.71 µM | TGI (SR leukemia): 22.2 µM | GI50 (SW-620 colon): 3.59 µM | TGI (SW-620 colon): 14 µM | GI50 (T-47D breast): 2 µM | TGI (T-47D breast): 16.5 µM | GI50 (TK-10 renal): 17.5 µM | TGI (TK-10 renal): 31.8 µM | GI50 (U251 CNS): 5.13 µM | TGI (U251 CNS): 17.6 µM | GI50 (UACC-257 melanoma): 2.31 µM | TGI (UACC-257 melanoma): 5.83 µM | GI50 (UACC-62 melanoma): 7.19 µM | TGI (UACC-62 melanoma): 20 µM | GI50 (UO-31 renal): 3 µM | TGI (UO-31 renal): 14.4 µM

OC(c1ccco1)C(F)(F)c1nc2ccccc2o1 (stereo not given)
TGI (786-0 renal): > 100 µM | TGI (A498 renal): > 100 µM | TGI (ACHN renal): > 100 µM | TGI (BT-549 breast): > 100 µM | TGI (CAKI-1 renal): > 100 µM | TGI (CCRF-CEM leukemia): > 100 µM | TGI (COLO 205 colon): > 100 µM | TGI (DU-145 prostate): > 100 µM | TGI (EKVX NSCLC): > 100 µM | TGI (HCC-2998 colon): > 100 µM | TGI (HCT-116 colon): > 100 µM | TGI (HCT-15 colon): > 100 µM | TGI (HL-60(TB) leukemia): > 100 µM | TGI (HOP-62 NSCLC): > 100 µM | TGI (HOP-92 NSCLC): > 100 µM | TGI (HS 578T breast): > 100 µM | TGI (HT29 colon): > 100 µM | TGI (IGROV1 ovarian): > 100 µM | TGI (K-562 leukemia): > 100 µM | TGI (KM12 colon): > 100 µM | TGI (LOX IMVI melanoma): > 100 µM | TGI (M14 melanoma): > 100 µM | TGI (MCF7 breast): > 100 µM | TGI (MDA-MB-231 breast): > 100 µM | TGI (MDA-MB-435): > 100 µM | TGI (MOLT-4 leukemia): > 100 µM | TGI (NCI-H226 lung): > 100 µM | TGI (NCI-H23 lung): > 100 µM | TGI (NCI-H460 lung): > 100 µM | TGI (NCI/ADR-RES ovarian): > 100 µM | TGI (OVCAR-4 ovarian): > 100 µM | TGI (OVCAR-8 ovarian): > 100 µM | TGI (PC-3 prostate): > 100 µM | TGI (RPMI-8226 leukemia): > 100 µM | TGI (RXF 393 renal): > 100 µM | TGI (SF-268 CNS): > 100 µM | TGI (SF-295 CNS): > 100 µM | TGI (SF-539 CNS): > 100 µM | TGI (SK-MEL-2 melanoma): > 100 µM | TGI (SK-MEL-28 melanoma): > 100 µM | TGI (SK-MEL-5 melanoma): > 100 µM | TGI (SK-OV-3 ovarian): > 100 µM | TGI (SNB-19 CNS): > 100 µM | TGI (SNB-75 CNS): > 100 µM | TGI (SR leukemia): > 100 µM | TGI (SW-620 colon): > 100 µM | TGI (T-47D breast): > 100 µM | TGI (TK-10 renal): > 100 µM | TGI (U251 CNS): > 100 µM | TGI (UACC-257 melanoma): > 100 µM | TGI (UACC-62 melanoma): > 100 µM | TGI (UO-31 renal): > 100 µM

From PubChem BioAssay (NCI)
